Laboratory results: US20020183205A1, “Use of alpha2-adrenergic receptor agonists and adrenergic inhibitors in reducing defoliation” (priority 2001, published 2002)

Columns and labels:
Format in all cases: in vivo
[1] = tested on: calamondin (Citrus madurensis); test: Leaf drop of calamondin after canopy spray with agonists alone or in combination with Ethrel; conditions: 7 days after application
Method: (§1) A solution of an α2-adrenergic agonist was prepared. The solution contained 0.25 to 2 mM of agonist dissolved in water containing an appropriate surfactant. Ethrel® (2-chloroethyl phosphonic acid), an abscission agent, was added at a concentration that causes fruit loosening (in the case of citrus, 100 to 400 mg/L, depending on the variety). The solution was sprayed onto a tree canopy until “run-off,” typically about 2.5 liters per 15 foot tree. […] Under field conditions the canopies were not sprayed with the agonist-containing solutions if rainfall was anticipated within 24 hours. A positive control, containing a suitable concentration of Ethrel® or other abscission agent, as well as an agonist and surfactant control were sprayed on separate canopies. After several days, usually 3 to 10, differences in leaf drop were measured by counting or weighing dropped leaves. Fruit detachment force (FDF, a measurement defined as the force required to remove fruit from the tree stem) was measured in all treatments.
(§2) Kinetic® was used as a surfactant. Leaf drop data are leaf loss means of 3 branches times 10 trees, 7 days after application. FDF data are means of 5 fruit times 10 trees, 5 days after application.

[2] = tested on: Valencia orange (Citrus sinensis); test: Leaf drop of Valencia orange, clonidine alone or in combination with Ethrel; conditions: 7 days after application
Method: as §1
Kinetic® was used as a surfactant. Data are the leaf loss means of 3 branches times 5 trees, 7 days after application.

[3] = tested on: calamondin (Citrus madurensis); test: Fruit detachment force (FDF) of calamondin after canopy spray with agonists alone or in combination with Ethrel; conditions: 5 days after application
Method: as §1, §2

Valencia orange = test: Leaf drop of Valencia orange, Ethrel, coronatine, coronatine+guanfacine; conditions: 10 days after application
Method: The effect of Ethrel, coronatine, coronatine+guanfacine, and adjuvant alone on % cumulative leaf drop in Valencia orange was tested. The data reported in Table 3 are means of 3 branches times 5 trees, 10 days after application.

[4] = agonist 1 mM + Ethrel 400 mg/L, Kinetic surfactant
[5] = agonist 1 mM alone, Kinetic surfactant
[6] = Ethrel 400 mg/L alone (positive control)
[7] = agonist 0.5 mM + Ethrel 400 mg/L, Kinetic surfactant
[8] = agonist 0.5 mM alone, Kinetic surfactant

Clc1cccc(Cl)c1N=C1NCCN1 [Clonidine, clonidine]
% Cumulative Leaf Drop [1, 4]: 13.4% | % Cumulative Leaf Drop [1, 5]: 5.8% | % Cumulative Leaf Drop ([2]; 1 mM clonidine + Ethrel 100 mg/L): 6.1% | % Cumulative Leaf Drop ([2]; 1 mM clonidine + Ethrel 200 mg/L): 14.3% | % Cumulative Leaf Drop ([2]; 1 mM clonidine alone): 2.7% | % Cumulative Leaf Drop ([2]; 2 mM clonidine + Ethrel 100 mg/L): 7.0% | % Cumulative Leaf Drop ([2]; 2 mM clonidine + Ethrel 200 mg/L): 15.1% | % Cumulative Leaf Drop ([2]; 2 mM clonidine alone): 3.2% | % Reduction in FDF [3, 4]: 40.5% | % Reduction in FDF [3, 5]: 0.5%

O=P(O)(O)CCCl [Ethrel ®, 2-chloroethyl phosphonic acid]
% Cumulative Leaf Drop [1, 6]: 68.3% | % Cumulative Leaf Drop ([2]; Ethrel 100 mg/L alone): 19.1% | % Cumulative Leaf Drop ([2]; Ethrel 200 mg/L alone): 43.8% | % Cumulative Leaf Drop (Valencia orange; Ethrel 200 mg/L alone): 49.23% | % Reduction in FDF [3, 6]: 41.6%

N=C(N)N/N=C/c1c(Cl)cccc1Cl [Guanabenz, guanabenz]
% Cumulative Leaf Drop [1, 4]: 14.1% | % Cumulative Leaf Drop [1, 5]: 5.9% | % Reduction in FDF [3, 4]: 34.6% | % Reduction in FDF [3, 5]: 1.0%

N=C(N)NC(=O)Cc1c(Cl)cccc1Cl [Guanafacine, guanfacine]
% Cumulative Leaf Drop [1, 4]: 4.8% | % Cumulative Leaf Drop [1, 5]: 6.5% | % Cumulative Leaf Drop (Valencia orange; 2 mM guanfacine + coronatine 200 mg/L): 3.07% | % Reduction in FDF [3, 4]: 34.8% | % Reduction in FDF [3, 5]: 1.0%

Brc1c(NC2=NCCN2)ccc2nccnc12 [UK14,304, Brimonidine]
% Cumulative Leaf Drop [1, 7]: 15.6% | % Cumulative Leaf Drop [1, 8]: 6.0% | % Reduction in FDF [3, 7]: 33.4% | % Reduction in FDF [3, 8]: 1.2%

CC[C@H]1C=C(C(=O)N[C@@]2(C(=O)O)C[C@@H]2CC)[C@H]2CCC(=O)[C@H]2C1 [coronatine]
% Cumulative Leaf Drop (Valencia orange; coronatine 200 mg/L alone): 12.56%
